# Paper PMC13267291, “In vivo functional profiling and structural characterization of the human GLP1R A316T variant” (Science Advances, 2026)
# System: hGLP1R^A316T/+ versus hGLP1R^+/+ mice
# Assay: IPGTT after GLP-1RA, HFHS-fed heterozygous mice
# Type: in vivo, mouse
# Details: HFHS diet; 2 nmol/kg; n = 7; fig. S5G,H
# Protocol: All animal procedures were approved by the British Home Office under the UK animals (Scientific Procedures) Act 1986 (Project License number PP7151519 to A. Martinez-Sanchez, Imperial College London, UK) and from the local ethical committee (Animal Welfare and Ethics Review Board) at the Central Biological Services unit of Imperial College London. Animals were housed in groups of up to four adult mice in individually ventilated cages under controlled conditions at 21° to 23°C with 12-hour:12-hour light-to-dark cycles (lights on at 07:00). Ad libitum access to water and feed was provided unless otherwise stated. Lean mice were fed a standard chow diet [RM1 (E); Special Diet Services]. For HFHS diet studies, animals were put on a 58 kcal % fat and sucrose diet (D12331, Research Diets Inc.) ad libitum for 10 to 14 weeks before experiments.
# To examine acute and prolonged glycemic responses to GLP-1RAs, animals were fasted for 2 hours, starting at 8 a.m. on the morning of the experiments, before IPGTTs. GLP-1RAs were then coadministered at the indicated concentrations with 20% (w/v) D-glucose via intraperitoneal injection at weight-adjusted volumes. Baseline glucose readings were taken via tail venipuncture, and subsequent readings were taken at various time points after glucose ± GLP-1RA administration as for the OGTTs (0-hour acute IPGTTs). […]
substance,measurement,value
exendin-4,"Desensitization 6 hours postagonist, A316T/+ versus +/+",significantly increased desensitization
